Measured values reported in patent US20240327382A1 (ALMAC DISCOVERY LIMITED, priority 2021, published 2024).
Where a name gives a salt, the structure may show the parent alone.

Target: T1, Full-length USP19 (Homo sapiens, UniProt O94966)
T1 construct: Full-length USP19 was purchased from Boston Biochem (E-576); purchased Boston Biochem E-576
T1 sequence (O94966 1-1318): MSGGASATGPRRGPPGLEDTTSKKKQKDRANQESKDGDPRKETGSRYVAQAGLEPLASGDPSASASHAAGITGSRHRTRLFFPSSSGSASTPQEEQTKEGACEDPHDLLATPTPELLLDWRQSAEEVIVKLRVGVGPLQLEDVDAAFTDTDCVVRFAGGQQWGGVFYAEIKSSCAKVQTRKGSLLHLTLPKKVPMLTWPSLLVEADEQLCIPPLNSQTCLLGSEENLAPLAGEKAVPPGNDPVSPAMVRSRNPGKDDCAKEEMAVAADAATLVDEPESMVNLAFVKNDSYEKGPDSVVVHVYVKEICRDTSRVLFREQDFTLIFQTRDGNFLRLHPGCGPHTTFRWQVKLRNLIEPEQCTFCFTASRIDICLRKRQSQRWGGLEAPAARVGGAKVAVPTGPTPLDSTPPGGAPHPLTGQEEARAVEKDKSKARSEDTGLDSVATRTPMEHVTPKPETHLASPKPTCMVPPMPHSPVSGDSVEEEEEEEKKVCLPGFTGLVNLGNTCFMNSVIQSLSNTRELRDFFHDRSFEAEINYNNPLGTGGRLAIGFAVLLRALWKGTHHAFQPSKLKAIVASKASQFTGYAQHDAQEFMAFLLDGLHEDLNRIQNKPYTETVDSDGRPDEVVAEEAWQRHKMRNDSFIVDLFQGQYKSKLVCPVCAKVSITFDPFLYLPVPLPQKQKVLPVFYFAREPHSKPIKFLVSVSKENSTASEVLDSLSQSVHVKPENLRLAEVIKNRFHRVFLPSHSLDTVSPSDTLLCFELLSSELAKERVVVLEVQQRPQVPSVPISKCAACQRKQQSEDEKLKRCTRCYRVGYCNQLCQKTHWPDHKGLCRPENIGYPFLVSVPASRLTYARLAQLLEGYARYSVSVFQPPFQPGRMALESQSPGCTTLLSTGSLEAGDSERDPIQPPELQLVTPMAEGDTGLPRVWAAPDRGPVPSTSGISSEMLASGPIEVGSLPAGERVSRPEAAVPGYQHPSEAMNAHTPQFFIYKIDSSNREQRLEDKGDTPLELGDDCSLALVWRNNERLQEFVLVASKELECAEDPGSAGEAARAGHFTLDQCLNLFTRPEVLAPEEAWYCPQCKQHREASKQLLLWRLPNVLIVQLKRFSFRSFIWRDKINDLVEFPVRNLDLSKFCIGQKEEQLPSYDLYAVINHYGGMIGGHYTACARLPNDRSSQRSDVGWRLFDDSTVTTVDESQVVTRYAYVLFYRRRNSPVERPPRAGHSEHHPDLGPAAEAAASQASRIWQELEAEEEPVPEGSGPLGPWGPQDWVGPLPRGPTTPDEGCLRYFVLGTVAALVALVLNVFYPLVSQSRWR
Assay: USP19 fluorescence polarisation (FP) assay, Ubiquitin-Lys-TAMRA substrate
Type: biochemical
Conditions: average of at least two duplicate experiments
Procedure, shortened: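 Fluorescence polarisation (excitation 530 nm, parallel and perpendicular emission at 575 nm) was recorded every 15 min for 90 min after adding the ubiquitin-Lys-TAMRA isopeptide (500 nM as dispensed). Beforehand, the full-length enzyme (2.5 nM as dispensed) sat 30 min at RT with compound diluted from 200 μM to 2 μM in HEPES pH 7.4 buffer with 150 mM NaCl, 5 mM DTT, 0.05% BSA and 0.05% CHAPS. Values normalised to uninhibited wells gave IC50s by non-linear fitting, each the mean of two or more duplicate runs.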

Structure (SMILES)	IC50 [nM]
N[C@@H]1CC[C@@H](c2ccccc2)N(C(=O)N2CC[C@@H](Cn3cnc(-c4ccccc4)cc3=O)C3(CCCC3)C2)C1 (racemic) [Example 188, 3-(((R)-7-((2S,5R)-5-Amino-2-phenylpiperidine-1-carbonyl)-7-azaspiro[4.5]decan-10-yl)methyl)-6-phenylpyrimidin-4(3H)-one and 3-(((R)-7-((2R,5S)-5-amino-2-phenylpiperidine-1-carbonyl)-7-azaspiro[4.5]decan-10-yl)methyl)-6-phenylpyrimidin-4(3H)-one]	10 to 100
O=C(N1CC[C@@H](Cn2cnc(C(F)F)cc2=O)C2(CCCC2)C1)N1CC[C@@H](NC2CC(F)(F)C2)C[C@H]1c1cc(F)ccc1F [Example 183, 3-(((R)-7-((2S,4R)-4-((3,3-Difluorocyclobutyl)amino)-2-(2,5-difluorophenyl)piperidine-1-carbonyl)-7-azaspiro[4.5]decan-10-yl)methyl)-6-(difluoromethyl)pyrimidin-4(3H)-one]	10 to 100
O=C(N1CC=C(Cn2cnc(-c3ccccc3)cc2=O)C2(CCCC2)C1)N1CCNC[C@H]1c1ccccc1 (single isomer, unassigned) [Example 2]	10 to 100
N[C@@H]1CCN(C(=O)N2CC[C@H](Cn3ccc(-c4ccccc4)cc3=O)C3(CCCC3)C2)[C@H](c2ccccc2)C1 [Example 24, 1-(((S)-7-((2S,4R)-4-Amino-2-phenylpiperidine-1-carbonyl)-7-azaspiro[4.5]decan-10-yl)methyl)-4-phenylpyridin-2(1H)-one]	1000 to 20000
C[C@H](CC(F)(F)F)C(=O)N1CCC(N)(Cn2cnc(-c3ccccc3)cc2=O)C2(CCCC2)C1 (stereo partly drawn) [Example 49, 3-((10-Amino-7-((R)-4,4,4-trifluoro-2-methylbutanoyl)-7-azaspiro[4.5]decan-10-yl)methyl)-6-phenylpyrimidin-4(3H)-one]	100 to 1000
O=C(N1CC[C@@H](Cn2ccc(-c3ccccc3)cc2=O)C2(CCCC2)C1)N1CC[C@@H](O)C[C@H]1c1ccccc1 [Example 44, 1-(((R)-7-((2S,4R)-4-Hydroxy-2-phenylpiperidine-1-carbonyl)-7-azaspiro[4.5]decan-10-yl)methyl)-4-phenylpyridin-2(1H)-one]	10 to 100
N[C@@H]1CCN(C(=O)N2CCC(Cn3ccc4ccncc4c3=O)C3(CCCC3)C2)[C@H](c2ccccc2)C1 (stereo partly drawn) [Example 33, 2-((7-((2S,4R)-4-Amino-2-phenylpiperidine-1-carbonyl)-7-azaspiro[4.5]decan-10-yl)methyl)-2,7-naphthyridin-1(2H)-one]	10 to 100
C[C@H](CC(F)(F)F)C(=O)N1CCC(Cn2ccc(-c3ccccc3)cc2=O)C2(CCCC2)C1 (stereo partly drawn) [Example 5, 4-Phenyl-1-((7-((R)-4,4,4-trifluoro-2-methylbutanoyl)-7-azaspiro[4.5]decan-10-yl)methyl)pyridin-2(1H)-one]	1000 to 20000
O=C(N1CC[C@@H](Cn2ccc(-c3ccccc3)cc2=O)C2(CCCC2)C1)N1CC[C@@H](NC2(CF)COC2)C[C@H]1c1ccccc1 [Example 112, 1-(((R)-7-((2S,4R)-4-((3-(Fluoromethyl)oxetan-3-yl)amino)-2-phenylpiperidine-1-carbonyl)-7-azaspiro[4.5]decan-10-yl)methyl)-4-phenylpyridin-2(1H)-one]	10 to 100

More lines, now with the values ahead:

IC50 [nM]	Structure (SMILES)
< 10	CN[C@@H]1CCN(C(=O)N2CC[C@@H](Cn3ccc(-c4ccccc4OC)cc3=O)C3(CCCC3)C2)[C@H](c2cc(F)cc(F)c2)C1 [Example 126, 1-(((R)-7-((2S,4R)-2-(3,5-Difluorophenyl)-4-(methylamino)piperidine-1-carbonyl)-7-azaspiro[4.5]decan-10-yl)methyl)-4-(2-methoxyphenyl)pyridin-2(1H)-one]
< 10	CN[C@@H]1CCN(C(=O)N2CC[C@@H](Cn3cnc4ccc(F)cc4c3=O)C3(CCCC3)C2)[C@H](c2ccccc2)C1 [Example 101, 6-Fluoro-3-(((R)-7-((2S,4R)-4-(methylamino)-2-phenylpiperidine-1-carbonyl)-7-azaspiro[4.5]decan-10-yl)methyl)quinazolin-4(3H)-one]
< 10	N[C@@H]1CCN(C(=O)N2CC[C@@H](Cn3cnc4ccc(F)cc4c3=O)C3(CCCC3)C2)[C@H](c2cc(F)cc(F)c2)C1 [Example 181, 3-(((R)-7-((2S,4R)-4-Amino-2-(3,5-difluorophenyl)piperidine-1-carbonyl)-7-azaspiro[4.5]decan-10-yl)methyl)-6-fluoroquinazolin-4(3H)-one hydrochloride]
< 10	CN[C@@H]1CCN(C(=O)N2CC[C@@H](CN3CCC(c4ccccc4)=CC3=O)C3(CCCC3)C2)[C@H](c2cc(F)ccc2F)C1 [Example 168, 1-(((R)-7-((2S,4R)-2-(2,5-Difluorophenyl)-4-(methylamino)piperidine-1-carbonyl)-7-azaspiro[4.5]decan-10-yl)methyl)-4-phenyl-5,6-dihydropyridin-2(1H)-one]
< 10	CN[C@@H]1CCN(C(=O)N2CC[C@@H](Cn3ccc(-c4ccccc4OC)cc3=O)C3(CCCC3)C2)[C@H](c2ccc(F)cc2)C1 [Example 120, 1-(((R)-7-((2S,4R)-2-(4-Fluorophenyl)-4-(methylamino)piperidine-1-carbonyl)-7-azaspiro[4.5]decan-10-yl)methyl)-4-(2-methoxyphenyl)pyridin-2(1H)-one]
< 10	N[C@@H]1CCN(C(=O)N2CC[C@@H](Cn3ccc(-c4ccccc4)cc3=O)C3(CCCC3)C2)[C@H](c2cc(F)ccc2F)C1 [Example 87, 1-(((R)-7-((2S,4R)-4-Amino-2-(2,5-difluorophenyl)piperidine-1-carbonyl)-7-azaspiro[4.5]decan-10-yl)methyl)-4-phenylpyridin-2(1H)-one]
< 10	CN[C@@H]1CCN(C(=O)N2CC[C@@H](Cn3cnc(-c4ccccc4C)cc3=O)C3(CCCC3)C2)[C@H](c2cccc(F)c2)C1 [Example 119, 3-(((R)-7-((2S,4R)-2-(3-Fluorophenyl)-4-(methylamino)piperidine-1-carbonyl)-7-azaspiro[4.5]decan-10-yl)methyl)-6-(0-tolyl)pyrimidin-4(3H)-one]
< 10	O=C(N1CC[C@@H](Cn2cnc3ccc(F)cc3c2=O)C2(CCCC2)C1)N1CC[C@@H](NCC(F)F)C[C@H]1c1cc(F)ccc1F [Example 157, 3-(((R)-7-((2S,4R)-4-((2,2-Difluoroethyl)amino)-2-(2,5-difluorophenyl)piperidine-1-carbonyl)-7-azaspiro[4.5]decan-10-yl)methyl)-6-fluoroquinazolin-4(3H)-one]
< 10	Cc1ccccc1-c1cc(=O)n(C[C@@H]2CCN(C(=O)N3CC[C@@H](N)C[C@H]3c3cccc(F)c3)CC23CCCC3)cn1 [Example 81, 3-(((R)-7-((2S,4R)-4-Amino-2-(3-fluorophenyl)piperidine-1-carbonyl)-7-azaspiro[4.5]decan-10-yl)methyl)-6-(0-tolyl)pyrimidin-4(3H)-one]
< 10	CN[C@@H]1CCN(C(=O)N2CC[C@@H](Cn3ccc(-c4ccccc4C)cc3=O)C3(CCCC3)C2)[C@H](c2ccccc2)C1 [Example 54, 1-(((R)-7-((2S,4R)-4-(Methylamino)-2-phenylpiperidine-1-carbonyl)-7-azaspiro[4.5]decan-10-yl)methyl)-4-(o-tolyl)pyridin-2(1H)-one]
< 10	N[C@@H]1CCN(C(=O)N2CC[C@@H](Cn3cnc(-c4ccccc4)cc3=O)C3(CCCC3)C2)[C@H](c2cc(F)cc(F)c2)C1 [Example 107, 3-[[(10R)-7-[(2S,4R)-4-amino-2-(3,5-difluorophenyl)piperidine-1-carbonyl]-7-azaspiro[4.5]decan-10-yl]methyl]-6-phenyl-pyrimidin-4-one]
< 10	CCN[C@@H]1CCN(C(=O)N2CC[C@@H](Cn3cnc(-c4ccccc4)cc3=O)C3(CCCC3)C2)[C@H](c2cc(F)ccc2F)C1 [Example 156, 3-(((R)-7-((2S,4R)-2-(2,5-Difluorophenyl)-4-(ethylamino)piperidine-1-carbonyl)-7-azaspiro[4.5]decan-10-yl)methyl)-6-phenylpyrimidin-4(3H)-one]
